This is an account of results in patent US9950998B2, “Sulphated chelating agent” (priority 2012, dated 2018).

One data set can be described thus: Water solubility. The note with it: for water solubility: synthesis example, isolated powder. It is filed as physicochemical.
A short description of another data set: pH of 30% solution. It counts as physicochemical.
For data set [1], the system named is Escherichia Coli ATCC 25922. Nature of the data set: Antibacterial activity MIC. It is filed as cell-based. The note with it: pH 7-7.5, sample 30% in aqueous solution. The protocol:
(§1) The ability of Tetra Hydroxy Ethyl Di Sulphate-Di Natrium (THES) as a Sulphate chelating agent to open/loosen the cell membrane was tested against two types of bacterias, ie: Staphylococcus aerus (gram positive) that has two cell membrane (the outer membrane as the outer cell wall and the inner membrane) and E. Colli (gram negative) that has three cell membranes. First, the Minimum Inhibitory Concentration (MIC) of each bacterias was determined, then the bacteria membrane alteration after contacting with THES were observed by Electron Microscope (TEM and SEM) with the THES concentration range below and above MIC. Antibacterial activity was tested using disc-diffusion method by checking the clear zone from the paper disc inhibition that contains THES. The growth curve were made by means examining the bacterial culture on the broth media.
(§2) • 1. Bacteria preparation • The testing bacterias were growth on the aqueous medium and incubated for 24 hours at 37° C. • 2. […] This gradual concentration variation is necessary to determine MIC (Minimum Inhibitory Concentration) and the bacteriostatic/bactericidal properties of the tested Biocide. • 3. Determination of Killing method (bacteriostatic and bactericidal properties) • The testing was done on the aqueous medium contains the tested substance with the concentration 5, 10 and 20%. The turbidity of the cultured medium then will be measured every 30 minutes until 270 minutes with spectrophotometer. • 4. Preparation of microbe cells for electron microscope examination • Staphylococcus aereus and Escherichia coli were growth on the aqueous medium within 24 hours, then mixed with tetra hydroxy ethyl di sulphate di sodium (THES) with the final concentration 0.6; 5 and 10%. This system mixtures then was placed under vibrating incubator for several hours. Microbe cells then were separated and washed, first with NaCl 0.9% then with distilled water. Cells then were utilized for the preparation of electron microscope testing. • 5. Preparation for Scanning Electron Microscope (SEM) examination • Bacteria cells were suspended into 4% collodion. The said suspensions then were fixed on some metal disc and were coated with the gold powder. Then were examined with electron microscope and pictured. • 6. Preparation for Transmittance Electron Microscope (TEM) examination • a) The prepared microbes in (5) were fixed into a mixture of formaldehyde 2% and glutaraldehyde 0.5% for 2 hours at 4° C. • b) The above mixtures then was three times washed with pH 7 phosphate buffer, then were diluted into bovin serum albumin (BSA) 1/5 for embedded preparation, while leave glutaraldehyde hardening at room temperature. • c) After leaving dehydrated in alcohol, the white LR resin then will be infiltrated. • d) Embedded process were done at white LR resin following by polymerization process at 60° C. for 48 hours time. The polymerization product as hardened capsules then are ready to be sliced. • e) Making of semi thin and ultra thin slices. • Slices of microbe sample were made by utilizing automatic ultra microtom. To get the precised and accurate slices of sample, semi thin slice were made and coloured with blue toluidine then were examined under the visible microscope. When the right slices were obtained, ultra thin slices were prepared and were made contrast with uranil acetate and lead citrate. The dried ultra thin slices then can be examined with Transmittance Electron Microscope. Testing Results Minimum Inhibitory Concentration (MIC)
(§3) The test done on the pH range of 7-7.5 with the sample of Tetra Hydroxy Ethyl Di Sulphate-Di Natrium (THES-Di Natrium) 30% in aqueous solution.

Data set [2] deals with Staphylococcus Epidermidis ATCC 12228. As to the kind of experiment: Antibacterial activity MIC. To be noted: pH 7-7.5, sample 30% in aqueous solution. It counts as cell-based. The protocol:
as §1, §2, §3

The test system of data set [3] is Pseudomonas Aeruginosa ATCC 27853. As to the kind of experiment: Antibacterial activity MIC. It is filed as cell-based. The note with it: pH 7-7.5, sample 30% in aqueous solution. The protocol: as §1, §2, §3
A further data set has as its system Salmonella Typhii. Nature of the data set: Antibacterial activity MIC. It is filed as cell-based. To be noted: pH 7-7.5, sample 30% in aqueous solution. The protocol:
as §1, §2, §3

Data set [4] deals with Bacillus Subtilis ATCC 6633. Nature of the data set: Antibacterial activity MIC. It is filed as cell-based. To be noted: pH 7-7.5, sample 30% in aqueous solution. The protocol:
as §1, §2, §3

The test system of another data set is Klebsiella Pneumoniae. As to the kind of experiment: Antibacterial activity MIC. It is filed as cell-based. To be noted: pH 7-7.5, sample 30% in aqueous solution. The protocol: as §1, §2, §3
Data set [5] relates to Staphylococcus Aerus ATCC 6538. Nature of the data set: Antibacterial activity MIC. It counts as cell-based. The note with it: pH 7-7.5, sample 30% in aqueous solution. The protocol:
as §1, §2, §3

The test system of a further data set is Acinetobacter Anitratus. Nature of the data set: Antibacterial activity MIC. It is filed as cell-based. To be noted: pH 7-7.5, sample 30% in aqueous solution. The protocol: as §1, §2, §3
Data set [6] relates to Escherichia coli ATCC 9637. Nature of the data set: Electron microscope (TEM and SEM) examination of cell membrane. It is filed as cell-based. The note with it: in contact with 0.05% and 1% THES at pH 7 (FIG. 5). The protocol: as §1
(§4) Staphylococcus aerus ATCC 6538, Escherichia coli ATCC 9637 were supplied from Chemotherapy Laboratory of Pharmaceutical Department, Bandung Institute of Technology (ITB).
(§5) • 1. […] The turbidity of the cultured medium then will be measured every 30 minutes until 270 minutes with spectrophotometer. • 4. […] The polymerization product as hardened capsules then are ready to be sliced. • e) Making of semi thin and ultra thin slices. • Slices of microbe sample were made by utilizing automatic ultra microtom. […]

The subject of data set [7] is Staphylococcus Aerus ATCC 6538. Described as above. It is filed as cell-based. The note with it: in contact with 0.05% and 1% THES at pH 7 (FIG. 4). The protocol: as §1, §4, §5
Another data set relates to E. Coli. As to the kind of experiment: Biocide effication plate test, E. Coli. It counts as cell-based. The note with it: for Total Plate Count: Blanco 3900.
In data set [8] the test system is Total Plate Count Microorganism. As to the kind of experiment: Biocide effication plate test, total plate count microorganism. It counts as cell-based. To be noted: for Total Plate Count: Blanco/Control 2400.
The next data set relates to Staphylococcus Aerus. As to the kind of experiment: Biocide effication plate test, Staphylococcus Aerus. It is filed as cell-based. The note with it: biocide dosing 0.025%.
Another data set relates to Candida Albicans. As to the kind of experiment: Antifungal activity MIC. It is filed as cell-based. To be noted: pH 7-7.5, sample 30% in aqueous solution. The protocol: as §1
(§6) • 1. Bacteria preparation • The testing bacterias were growth on the aqueous medium and incubated for 24 hours at 37° C. • 2. […] The turbidity of the cultured medium then will be measured every 30 minutes until 270 minutes with spectrophotometer. • 4. […] The polymerization product as hardened capsules then are ready to be sliced. • e) Making of semi thin and ultra thin slices. • Slices of microbe sample were made by utilizing automatic ultra microtom. […]

The test system of a further data set is Aspergillus Niger. As to the kind of experiment: Antifungal activity MIC. The note with it: pH 7-7.5, sample 30% in aqueous solution. It counts as cell-based. The protocol: as §1, §6

Regarding `O=S(=O)(O)OC(OS(=O)(=O)O)(OS(=O)(=O)O)C(OS(=O)(=O)O)(OS(=O)(=O)O)OS(=O)(=O)O` [EHS, Ethyl Hexa Sulphate acid (EHS)], in the data set “Water solubility”, the “Solubility @ 25° C.” value is given as 48% and the water solubility turned out to be 48%. In addition, in “pH of 30% solution”, the “pH of 30% solution” value stood at 0.0.
For `O=S(=O)([O-])OC(O)(O)C(O)(O)OS(=O)(=O)[O-].[Na+].[Na+]` [THES-di Natrium], the “Minimum Inhibitory Concentration (MIC)” value came to 0.234% in [1]; 0.234% in data set [2]; 0.115% in [3]; 0.115% with Salmonella Typhii; 0.234% in data set [4]; 0.234% with Klebsiella Pneumoniae. Besides, the “Minimum Inhibitory Concentration (MIC)” value in [5] amounted to 0.234%; in the data set on Acinetobacter Anitratus, 0.115%; in the data set with Candida Albicans, 0.469%; in the data set on Aspergillus Niger, 0.937%. Moreover, the “Solubility @ 25° C.” value in the data set “Water solubility” is given as 31.5%. This molecule also came in with a water solubility in the data set “Water solubility” of 31%. For the same molecule, the “transversal section (TEM) of cell, cell membrane alteration” value is given as “also experienced the said internal cell liquid lysis out of its cell wall membrane layers” in data set [6] and “partly empty cells that has already lost its cytoplasm liquid due to lysis out of cell wall membrane” in data set [7]. Also, the Killing efficiency is 48.5 with E. Coli (biocide dosing 0.025%); 70.5 in the data set on E. Coli (biocide dosing 0.05%); 73.1 in the data set on E. Coli (biocide dosing 0.1%); 75.1 in the data set on E. Coli (biocide dosing 0.5%); 81.5 in the data set with E. Coli (biocide dosing 1.0%); 83.8 in the data set with E. Coli (biocide dosing 5.0%). Moreover, the Killing efficiency amounted to 94.5 in data set [8] (biocide dosing 0.05%); 95.2 in data set [8] (biocide dosing 0.1%); 95.8 in data set [8] (biocide dosing 0.5%); 96.7 in data set [8] (biocide dosing 1.0%); 69.8 in the data set with Staphylococcus Aerus. For the same molecule, the “Total Plate Count” value with E. Coli (biocide dosing 0.025%) is 2010 Colony/ml; in the data set on E. Coli (biocide dosing 0.05%), 1150 Colony/ml; with E. Coli (biocide dosing 0.1%), 1050 Colony/ml; with E. Coli (biocide dosing 0.5%), 970 Colony/ml; in the data set with E. Coli (biocide dosing 1.0%) it was 720 Colony/ml; in the data set on E. Coli (biocide dosing 5.0%) it was 630 Colony/ml. In addition, the “Total Plate Count” value in [8] (biocide dosing 0.05%) is on record as 132 Colony/ml; in data set [8] (biocide dosing 0.1%), 115 Colony/ml; in [8] (biocide dosing 0.5%), 101 Colony/ml; in [8] (biocide dosing 1.0%) it was 80 Colony/ml; in the data set on Staphylococcus Aerus (Blanco 980), 296 Colony/ml. Besides, the “pH of 30% solution” value in “pH of 30% solution” is 0.5-1.5.
`O=S(=O)([O-])OC(O)C(O)(OS(=O)(=O)[O-])C(O)(OS(=O)(=O)[O-])C(O)OS(=O)(=O)[O-].[Na+].[Na+].[Na+].[Na+]` (stereo not shown) [Tetra Hydroxy Butyl 1,2,3,4 Tetra Sulphate Tetra Natrium]: the “Solubility @ 25° C.” value in “Water solubility” is 27.3%. For the same molecule, in the data set “pH of 30% solution”, the “pH of 30% solution” value is 0.0-1.0.
The corresponding values for `O=S(=O)(O)OC(O)C(O)(OS(=O)(=O)O)C(O)(OS(=O)(=O)O)C(O)OS(=O)(=O)O` (stereo not shown) [Tetra Hydroxy Butyl 1,2,3,4 Tetra Sulphate] are 39.6% and less than 0.0.
With `O=S(=O)(O)OC(O)(O)C(O)(O)OS(=O)(=O)O` [Tetra Hydroxy Ethyl Di Sulphate], in the data set “Water solubility”, the “Solubility @ 25° C.” value is recorded as 48.0% and the water solubility came out at 48%. For the same molecule, the “pH of 30% solution” value in the data set “pH of 30% solution” is listed as less than 0.5.
Turning to `O=S(=O)([O-])OOC(O)C(O)(OS(=O)(=O)[O-])C(C(O)OS(=O)(=O)[O-])C(O)OS(=O)(=O)[O-].[Na+].[Na+].[Na+].[Na+]` (stereo not shown) [Tetra Hydroxy Isoamyl 1,2,3,4-Tetra Sulphate Tetra Natrium], in “Water solubility”, the “Solubility @ 25° C.” value came out at 40.1%. Also, the “pH of 30% solution” value in “pH of 30% solution” is 0.0-0.5.
The corresponding values for `O=S(=O)(O)OOC(O)C(O)(OS(=O)(=O)O)C(C(O)OS(=O)(=O)O)C(O)OS(=O)(=O)O` (stereo not shown) [Tetra Hydroxy Isoamyl 1,2,3,4-Tetra Sulphate] are 61.2% and less than 0.
The corresponding values for `O=S(=O)([O-])OC(O)C(C(O)OS(=O)(=O)[O-])C(O)OS(=O)(=O)[O-].[Na+].[Na+].[Na+]` (stereo not shown) [Tri Hydroxy Isobutyl 1,2,3-Tri Sulphate Tri Natrium] are 36.2% and 0.0-1.0.
The corresponding values for `O=S(=O)(O)OC(O)C(C(O)OS(=O)(=O)O)C(O)OS(=O)(=O)O` (stereo not shown) [Tri Hydroxy Isobutyl 1,2,3-Tri Sulphate] are 56.7% and less than 0.0.
